Tested on: HBV
Conditions: Hepatitis B virus, HePAD38, 144 h, read-out: Cell Activity

`COCC1(S(=O)(=O)Nc2cc3n(n2)CCN(C(=O)Nc2ccc(F)c(Cl)c2)C3)CC1` [Example 11, N-(3-chloro-4-fluorophenyl)-2-[1-(methoxymethyl)cyclopropanesulfonamido]-4H,5H,6H,7H-pyrazolo[1,5-a]pyrazine-5-carboxamide] and `COCC1(CNc2cc3n(n2)CCN(C(=O)Nc2ccc(F)c(Cl)c2)C3)CC1` [Example 15, N-(3-chloro-4-fluorophenyl)-2-({[1-(methoxymethyl)cyclopropyl]methyl}amino)-4H,5H,6H,7H-pyrazolo[1,5-a]pyrazine-5-carboxamide] cannot be ordered by EC50: under 1000 nM for the first, under 1000 nM for the second.

`O=C(Nc1ccc(F)c(Cl)c1)N1CCn2nc(N[C@@H]3CCC[C@H](O)C3)cc2C1` [Example 34, N-(3-chloro-4-fluorophenyl)-2-{[(1R,3S)-3-hydroxycyclohexyl]amino}-4H,5H,6H,7H-pyrazolo[1,5-a]pyrazine-5-carboxamide] and `O=C(Nc1ccc(F)c(Cl)c1)N1CCn2nc(N[C@H]3C[C@H](O)C3)cc2C1` [Example 36, N-(3-chloro-4-fluorophenyl)-2-{[(1r,3r)-3-hydroxycyclobutyl]amino}-4H,5H,6H,7H-pyrazolo[1,5-a]pyrazine-5-carboxamide] fall in the same range of EC50: 1000 to 10000 nM for the first, 1000 to 10000 nM for the second.

`O=C(Nc1ccc(F)c(Cl)c1)N1CCn2nc(NCC3CCCOC3)cc2C1` (centres unmarked) [Example 16, N-(3-chloro-4-fluorophenyl)-2-{[(oxan-3-yl)methyl]amino}-4H,5H,6H,7H-pyrazolo[1,5-a]pyrazine-5-carboxamide] and `O=C(Nc1ccc(F)c(Cl)c1)N1CCn2nc(NCC3CCOC3)cc2C1` (centres unmarked) [Example 10, N-(3-chloro-4-fluorophenyl)-2-{[(oxolan-3-yl)methyl]amino}-4H,5H,6H,7H-pyrazolo[1,5-a]pyrazine-5-carboxamide] fall in the same range of EC50: 1000 to 10000 nM for the first, 1000 to 10000 nM for the second.

`COC(=O)N1CCC(C(=O)Nc2cc3n(n2)CCN(C(=O)Nc2ccc(F)c(Cl)c2)C3)CC1` [Example 30, methyl 4-({5-[(3-chloro-4-fluorophenyl)carbamoyl]-4H,5H,6H,7H-pyrazolo[1,5-a]pyrazin-2-yl}carbamoyl)piperidine-1-carboxylate] and `O=C(Nc1cc2n(n1)CCN(C(=O)Nc1ccc(F)c(Cl)c1)C2)C1CCN(C2CC2)CC1` [Example 31, N-{5-[(3-chloro-4-fluorophenyl)carbamoyl]-4H,5H,6H,7H-pyrazolo[1,5-a]pyrazin-2-yl}-1-cyclopropylpiperidine-4-carboxamide] cannot be ordered by EC50: under 1000 nM for the first, under 1000 nM for the second.

`CC(Nc1cc2n(n1)CCN(C(=O)Nc1ccc(F)c(Cl)c1)C2)C1CCOC1` (centres unmarked) [Example 26, N-(3-chloro-4-fluorophenyl)-2-{[1-(oxolan-3-yl)ethyl]amino}-4H,5H,6H,7H-pyrazolo[1,5-a]pyrazine-5-carboxamide] and `O=C(Nc1ccc(F)c(Cl)c1)N1CCn2nc(NC3CCOC3)cc2C1` (centres unmarked) [Example 1, N-(3-chloro-4-fluorophenyl)-2-[(oxolan-3-yl)amino]-4H,5H,6H,7H-pyrazolo[1,5-a]pyrazine-5-carboxamide] fall in the same range of EC50: 1000 to 10000 nM for the first, 1000 to 10000 nM for the second.

`O=C(Nc1ccc(F)c(Cl)c1)N1CCn2nc(NCC3(CO)CCC3)cc2C1` [Example 21, N-(3-chloro-4-fluorophenyl)-2-({[1-(hydroxymethyl)cyclobutyl]methyl}amino)-4H,5H,6H,7H-pyrazolo[1,5-a]pyrazine-5-carboxamide] and `O=C(Nc1ccc(F)c(Cl)c1)N1CCn2nc(NCC3(O)CCC3)cc2C1` [Example 33, N-(3-chloro-4-fluorophenyl)-2-{[(1-hydroxycyclobutyl)methyl]amino}-4H,5H,6H,7H-pyrazolo[1,5-a]pyrazine-5-carboxamide] cannot be ordered by EC50: under 1000 nM for the first, under 1000 nM for the second.

First: O=C(Nc1ccc(F)c(Cl)c1)N1CCn2nc(NC3CCC(O)CC3)cc2C1 (centres unmarked) [Example 2, N-(3-chloro-4-fluorophenyl)-2-[(4-hydroxycyclohexyl)amino]-4H,5H,6H,7H-pyrazolo[1,5-a]pyrazine-5-carboxamide]
Second: O=C(Nc1ccc(F)c(Cl)c1)N1CCn2nc(N[C@H]3CC[C@H](O)CC3)cc2C1 [Example 35, N-(3-chloro-4-fluorophenyl)-2-{[(1r,4r)-4-hydroxycyclohexyl]amino}-4H,5H,6H,7H-pyrazolo[1,5-a]pyrazine-5-carboxamide]
The EC50 of the first is lower: under 1000 nM for the first, 1000 to 10000 nM for the second. The first is the more potent here.

`CC1Cn2nc(N)cc2CN1C(=O)Nc1ccc(F)c(Cl)c1` (centres unmarked) [Example 7, 2-amino-N-(3-chloro-4-fluorophenyl)-6-methyl-4H,5H,6H,7H-pyrazolo[1,5-a]pyrazine-5-carboxamide] and `CC1Cn2nc(NCC3CCOC3)cc2CN1C(=O)Nc1ccc(F)c(Cl)c1` (centres unmarked) [Example 4] fall in the same range of EC50: 1000 to 10000 nM for the first, 1000 to 10000 nM for the second.

`O=C(Nc1cc2n(n1)CCN(C(=O)Nc1ccc(F)c(Cl)c1)C2)C1CCOC1` (centres unmarked) [Example 9, N-(3-chloro-4-fluorophenyl)-2-(oxolane-3-amido)-4H,5H,6H,7H-pyrazolo[1,5-a]pyrazine-5-carboxamide] and `O=C(Nc1cc2n(n1)CCN(C(=O)Nc1ccc(F)c(Cl)c1)C2)C1CCOCC1` [Example 8, N-(3-chloro-4-fluorophenyl)-2-(oxane-4-amido)-4H,5H,6H,7H-pyrazolo[1,5-a]pyrazine-5-carboxamide] cannot be ordered by EC50: under 1000 nM for the first, under 1000 nM for the second.

First: CC(C)OC1(CNc2cc3n(n2)CCN(C(=O)Nc2ccc(F)c(Cl)c2)C3)CCC1 [Example 24, N-(3-chloro-4-fluorophenyl)-2-({[1-(propan-2-yloxy)cyclobutyl]methyl}amino)-4H,5H,6H,7H-pyrazolo[1,5-a]pyrazine-5-carboxamide]
Second: COC1(CNc2cc3n(n2)CCN(C(=O)Nc2ccc(F)c(Cl)c2)C3)CCC1 [Example 18, N-(3-chloro-4-fluorophenyl)-2-{[(1-methoxycyclobutyl)methyl]amino}-4H,5H,6H,7H-pyrazolo[1,5-a]pyrazine-5-carboxamide]
The EC50 of the first is higher: 1000 to 10000 nM for the first, under 1000 nM for the second.

`O=C(Nc1ccc(F)c(Cl)c1)N1CCn2nc(NC3(CO)CCC3)cc2C1` [Example 32, N-(3-chloro-4-fluorophenyl)-2-{[1-(hydroxymethyl)cyclobutyl]amino}-4H,5H,6H,7H-pyrazolo[1,5-a]pyrazine-5-carboxamide] and `CC(=O)Nc1cc2n(n1)CCN(C(=O)Nc1ccc(F)c(Cl)c1)C2` [Example 5, N-(3-chloro-4-fluorophenyl)-2-acetamido-4H,5H,6H,7H-pyrazolo[1,5-a]pyrazine-5-carboxamide] cannot be ordered by EC50: under 1000 nM for the first, under 1000 nM for the second.

Compared with `COC1(CNc2cc3n(n2)CCN(C(=O)Nc2ccc(F)c(Cl)c2)C3)CCOC1` (centres unmarked) [Example 25, N-(3-chloro-4-fluorophenyl)-2-{[(3-methoxyoxolan-3-yl)methyl]amino}-4H,5H,6H,7H-pyrazolo[1,5-a]pyrazine-5-carboxamide], `CC1(CNc2cc3n(n2)CCN(C(=O)Nc2ccc(F)c(Cl)c2)C3)CCOC1` (centres unmarked) [Example 20, N-(3-chloro-4-fluorophenyl)-2-{[(3-methyloxolan-3-yl)methyl]amino}-4H,5H,6H,7H-pyrazolo[1,5-a]pyrazine-5-carboxamide] is lower in EC50: 1000 to 10000 nM for the first, under 1000 nM for the second. The second is the more potent here.

First: COC1CCC(Nc2cc3n(n2)CCN(C(=O)Nc2ccc(F)c(Cl)c2)C3)CC1 (centres unmarked) [Example 19, N-(3-chloro-4-fluorophenyl)-2-[(4-methoxycyclohexyl)amino]-4H,5H,6H,7H-pyrazolo[1,5-a]pyrazine-5-carboxamide]
Second: O=C(Nc1ccc(F)c(Cl)c1)N1CCn2nc(NCC3CCOCC3)cc2C1 [Example 6, N-(3-chloro-4-fluorophenyl)-2-{[(oxan-4-yl)methyl]amino}-4H,5H,6H,7H-pyrazolo[1,5-a]pyrazine-5-carboxamide]
The EC50 of the first is lower: under 1000 nM for the first, 1000 to 10000 nM for the second.

`CC(C)(CO)CNc1cc2n(n1)CCN(C(=O)Nc1ccc(F)c(Cl)c1)C2` [Example 17, N-(3-chloro-4-fluorophenyl)-2-[(3-hydroxy-2,2-dimethylpropyl)amino]-4H,5H,6H,7H-pyrazolo[1,5-a]pyrazine-5-carboxamide] and `CCC(C)(CO)CNc1cc2n(n1)CCN(C(=O)Nc1ccc(F)c(Cl)c1)C2` (centres unmarked) [Example 22, N-(3-chloro-4-fluorophenyl)-2-[(2-ethyl-3-hydroxy-2-methylpropyl)amino]-4H,5H,6H,7H-pyrazolo[1,5-a]pyrazine-5-carboxamide] cannot be ordered by EC50: under 1000 nM for the first, under 1000 nM for the second.

`O=C(Nc1ccc(F)c(Cl)c1)N1CCn2nc(NC3(c4ccccc4)CC3)cc2C1` [Example 27, N-(3-chloro-4-fluorophenyl)-2-[(1-phenylcyclopropyl)amino]-4H,5H,6H,7H-pyrazolo[1,5-a]pyrazine-5-carboxamide] and `O=C(Nc1ccc(F)c(Cl)c1)N1CCn2nc(NS(=O)(=O)C3CC3)cc2C1` [Example 12, N-(3-chloro-4-fluorophenyl)-2-cyclopropanesulfonamido-4H,5H,6H,7H-pyrazolo[1,5-a]pyrazine-5-carboxamide] cannot be ordered by EC50: under 1000 nM for the first, under 1000 nM for the second.

`O=C(Nc1cc2n(n1)CCN(C(=O)Nc1ccc(F)c(Cl)c1)C2)C1CCNC(C(F)(F)F)C1` (centres unmarked) [Example 29, N-{5-[(3-chloro-4-fluorophenyl)carbamoyl]-4H,5H,6H,7H-pyrazolo[1,5-a]pyrazin-2-yl}-2-(trifluoromethyl)piperidine-4-carboxamide] and `O=C(Nc1cc2n(n1)CCN(C(=O)Nc1ccc(F)c(Cl)c1)C2)C1CCN(c2ccncc2)CC1` [Example 28, N-{5-[(3-chloro-4-fluorophenyl)carbamoyl]-4H,5H,6H,7H-pyrazolo[1,5-a]pyrazin-2-yl}-1-(pyridin-4-yl)piperidine-4-carboxamide] cannot be ordered by EC50: under 1000 nM for the first, under 1000 nM for the second.

`O=C(Nc1ccc(F)cc1)N1CCn2nc(NS(=O)(=O)C3(CO)CC3)cc2C1` [Example 14, N-(4-fluorophenyl)-2-[1-(hydroxymethyl)cyclopropanesulfonamido]-4H,5H,6H,7H-pyrazolo[1,5-a]pyrazine-5-carboxamide] and `CC(CO)CNc1cc2n(n1)CCN(C(=O)Nc1ccc(F)c(Cl)c1)C2` (centres unmarked) [Example 23, N-(3-chloro-4-fluorophenyl)-2-[(3-hydroxy-2-methylpropyl)amino]-4H,5H,6H,7H-pyrazolo[1,5-a]pyrazine-5-carboxamide] cannot be ordered by EC50: under 100000 nM for the first, 1000 to 10000 nM for the second.

`CC1Cn2nc(NC(=O)C3CCOC3)cc2CN1C(=O)Nc1ccc(F)c(Cl)c1` (centres unmarked) [Example 3, N-(3-chloro-4-fluorophenyl)-6-methyl-2-(oxolane-3-amido)-4H,5H,6H,7H-pyrazolo[1,5-a]pyrazine-5-carboxamide] gave an EC50 of under 1000 nM.

From patent US20220009931A1, “NOVEL UREA 6,7-DIHYDRO-4H-PYRAZOLO[1,5-A]PYRAZINES ACTIVE AGAINST THE HEPATITIS B VIRUS (HBV)” (AICURIS GMBH & CO. KG, priority 2018, published 2022)
